Reference: patent publication US4435570A, “5-(Phenyl or benzyl amino)methyl-pyrrolo[2,3-d]pyrimidin-4-one” (Takeda Chemical Industries, Ltd., priority 1981, dated 1984)
In brackets after ≈: the same amount, converted by molar mass.

What was measured:
[1] = tested on: rat liver tRNA-guanine transglycosidase; assay: Intake of compound into tRNA (tRNA-guanine transglycosidase, [3H]guanine-labeled tRNA); format: biochemical; conditions: 0.02 OD260 of compound, 0.5 unit enzyme, 100 μl, 37° C., 17 hrs
Procedure: Intake of the compound of Example 1 into tRNA [^3 H]guanine-labeled tRNA* (8000 cpm), 70 mM Trishydrochloride, 60 mM magnesium chloride, 0.5 unit of rat liver tRNA-guanine transglycosidase and 0.02 OD260 of the compound of Example 1 were adjusted to 100 μl and reacted at 37° C. for 17 hrs. The reaction mixture was absorbed into a strip of Whatman 3 MM filter paper and washed three times with a 5% aqueous solution of trichloroacetic acid, once each with ethanol-ether (1:1) and ether. After drying, the paper strip was scanned with a toluenic scintillant.
* tRNA labeled with [^3 H] guanine in the first letter of its anticodon.
The 0.02 OD260 equivalent of the compound of Example 3 was adjusted to 100 μl and subjected to the same procedure as Experimental Example 1.

[2] = tested on: L5178Y cells (tumor cells); assay: Inhibitory effect upon the multiplication of tumor cells; format: cell-based; conditions: RPMI 1640 medium+10% fetal calf serum, 48 hours, 37° C.; for IC50: Mus musculus, read-out: ED50 (concentration giving a cell count of 50% of control)
Procedure: The inhibitory effect of compound (I) upon the multiplication of cells was detected using L5178Y cells (tumor cells) in RPMI 1640 medium+10% fetal calf serum for 48 hours at 37° C.
The result was expressed in the concentration of the drug giving a cell count of 50% (ED50) with the average number of cells for the control (not modicated) group on the 2nd day being taken as 100%.

[3] = tested on: tRNA in the tumor cells (S-180 cancer-bearing mice); assay: Intake of the radioactive compound into a tumor tissue (tRNA of tumor cells of S-180 cancer-bearing mice); format: in vivo; conditions: 100 mg (0.17 mCi)/kg, tail vein once, 24 hours after administration, S-180 i.p. ddN mice
Procedure: Intake of the radioactive compound of Example 2 into a tumor tissue
Using S-180 cancer-bearing mice (ddN mice, 10^7 tumor cells/mouse as transplanted i.p.), 100 mg (0.17 mCi)/kg of the radioactive compound of Example 2 was administered into the tail vein once. Twenty-four hours after administration, the animal was sacrificed and the tumor cells were taken out and the rate of takeup of the radioactive compound into tRNA in the tumor cells was determined. […] [Experimental method: N. Okada et al., Biochem., 19, 395 (1980)]

Structure (SMILES) | taken into tRNA [1] | IC50 [2] | ED50 (concentration giving a cell count of 50% of control) [2] | rate of takeup of the radioactive compound into tRNA in the tumor cells (tRNA substituted) [3]
Nc1nc2[nH]cc(CNCc3ccc(I)cc3)c2c(=O)[nH]1 [Example 3, 2-amino-5-(p-iodobenzyl)aminomethylpyrrolo[2,3-d]pyrimidin-4-one] | 93% | 35 µg/mL (≈ 88.6 µM) | – | –
Nc1nc2[nH]cc(CN[C@H]3C=C[C@H](O)[C@@H]3O)c2c(=O)[nH]1 [Q base, reference compound] | – | – | > 200 µg/mL | –
N=C(NCc1c[nH]c2nc(N)[nH]c(=O)c12)c1cc(I)c(O)c(I)c1 [Example 2, radioactive 2-amino-5-[α-(3,5-diiodo-4-hydroxy)phenyliminomethylamino]methylpyrrolo[2,3-d]pyrimidin-4-one] | – | – | – | ~100%
N=C(NCc1c[nH]c2nc(N)[nH]c(=O)c12)c1cc(I)c(O)c(I)c1 [Example 1, 2-amino-5-[α-(3,5-diiodo-4-hydroxy)phenyliminomethylamino]methylpyrrolo[2,3-d]pyrimidin-4-one] | 59% | 20 µg/mL (≈ 36.4 µM) | – | –
